Laboratory results from patent US11427581B2, “JAK inhibitor and use thereof” (ZHUHAI UNITED LABORATORIES CO., LTD., priority 2018, dated 2022).
Like-named read-outs stand apart in the source and are kept apart here.

Assays:
JAK1 (h) = JAK1 (h) (Homo sapiens (Human), UniProt P23458); assay: In vitro activity assay of JAK1 kinase (radiometric 33P-ATP, Eurofins); assay type: biochemical; conditions: recombinant human JAK1
JAK2 (h) = JAK2 (h) (Homo sapiens (Human), UniProt O60674); assay: In vitro activity assay of JAK2 kinase (radiometric 33P-ATP, Eurofins); assay type: biochemical; conditions: recombinant human JAK2
JAK3 (h) = JAK3 (h) (Homo sapiens (Human), UniProt P52333); assay: In vitro activity assay of JAK3 kinase (radiometric 33P-ATP, Eurofins); assay type: biochemical; conditions: recombinant human JAK3
Method: (§1) Recombinant human-derived JAK1, JAK2, JAK3, Tyk2 protease, main instruments and reagents were provided by Eurofins in the UK
(§2) JAK2, JAK3 and TYK2 dilution: 20 mM MOPS, 1 mM EDTA, 0.01% Brij-35.5% glycerol, 0.1% β-mercaptoethanol. 1 mg/mL BSA; JAK1 dilution: 20 mM TRIS, 0.2 mM EDTA, 0.1% β-mercaptoethanol, 0.01% Brij-35.5% glycerol. All compounds were prepared as 100% DMSO solutions, and the concentration of the compound reached 50 times the final measured concentration. The test compound was diluted with a 3-fold concentration gradient, the final concentration was 10 μM to 0.001 μM in total 9 concentrations, and the content of DMSO in the detection reaction was 2%. The working stock solution of the compound was added to the wells as the first component of the reaction, and then the remaining components were added according to the protocol detailed below.
(§3) JAK3 (h) was incubated with 8 mM MOPS pH 7.0, 0.2 mM EDTA, 500 μM […], 10 mM magnesium acetate and [γ-^33P]-ATP (activity and concentration were formulated as needed). Mg/ATP mixture was added to initiate the reaction. After incubating at room temperature for 40 minutes, the reaction mixture was added with 0.5% phosphoric acid to stop the reaction. Then 10 μL the reaction solution was spotted on a P30 filter pad and washed with 0.425% phosphoric acid three times and methanol once over 4 minutes, dried, and counted scintillation.
(§4) The IC50 results were analyzed by XLFIT5 (205 formula) of IDBS Company, see Table 1 for details.

TYK2 (h) = TYK2 (h) (Homo sapiens (Human), UniProt P29597); assay: In vitro activity assay of TYK2 kinase (radiometric 33P-ATP, Eurofins); assay type: biochemical; conditions: recombinant human TYK2
Method: as §1, §2
as §3, with “TYK2” for “JAK3”, “250” for “500”, “μL” for “μL the”, “reaction” for “reaction solution”
as §4

[1] = system: adjuvant-induced arthritis rat model; assay: In vivo drug efficacy study in an adjuvant-induced arthritis model (AIA); conditions: for average foot volume of arthritis rat: vehicle 2.8 mL
[2] = Pharmacokinetic (PK) assay in rat; assay type: in vivo; conditions: male SD rat; for Bioavailability: gavage vs tail vein; for Cmax: read-out: Cmax (peak concentration)
Method: The clear solution obtained by dissolving the test compound was injected into male mice (C57BL/6) or rats (SD) by tail vein and gavage respectively (overnight fasting, 7-8 weeks old). […] The drug concentration on blood was determined by LC-MS/MS, the related pharmacokinetic parameters were calculated by the linear logarithm trapezoid method of non atrioventricular model by WinNonlin™ Version 6.3.

[3] = 15 mg/kg p.o. bid 14 d, end of the experiment (27th day)
[4] = 15 mpk p.o. bid 14 d, end of the experiment (27th day), vehicle peak about 8.5
[5] = tail vein and gavage groups, route of the parameter and dose not given

Chain of JAK3 (h) (P52333 whole entry): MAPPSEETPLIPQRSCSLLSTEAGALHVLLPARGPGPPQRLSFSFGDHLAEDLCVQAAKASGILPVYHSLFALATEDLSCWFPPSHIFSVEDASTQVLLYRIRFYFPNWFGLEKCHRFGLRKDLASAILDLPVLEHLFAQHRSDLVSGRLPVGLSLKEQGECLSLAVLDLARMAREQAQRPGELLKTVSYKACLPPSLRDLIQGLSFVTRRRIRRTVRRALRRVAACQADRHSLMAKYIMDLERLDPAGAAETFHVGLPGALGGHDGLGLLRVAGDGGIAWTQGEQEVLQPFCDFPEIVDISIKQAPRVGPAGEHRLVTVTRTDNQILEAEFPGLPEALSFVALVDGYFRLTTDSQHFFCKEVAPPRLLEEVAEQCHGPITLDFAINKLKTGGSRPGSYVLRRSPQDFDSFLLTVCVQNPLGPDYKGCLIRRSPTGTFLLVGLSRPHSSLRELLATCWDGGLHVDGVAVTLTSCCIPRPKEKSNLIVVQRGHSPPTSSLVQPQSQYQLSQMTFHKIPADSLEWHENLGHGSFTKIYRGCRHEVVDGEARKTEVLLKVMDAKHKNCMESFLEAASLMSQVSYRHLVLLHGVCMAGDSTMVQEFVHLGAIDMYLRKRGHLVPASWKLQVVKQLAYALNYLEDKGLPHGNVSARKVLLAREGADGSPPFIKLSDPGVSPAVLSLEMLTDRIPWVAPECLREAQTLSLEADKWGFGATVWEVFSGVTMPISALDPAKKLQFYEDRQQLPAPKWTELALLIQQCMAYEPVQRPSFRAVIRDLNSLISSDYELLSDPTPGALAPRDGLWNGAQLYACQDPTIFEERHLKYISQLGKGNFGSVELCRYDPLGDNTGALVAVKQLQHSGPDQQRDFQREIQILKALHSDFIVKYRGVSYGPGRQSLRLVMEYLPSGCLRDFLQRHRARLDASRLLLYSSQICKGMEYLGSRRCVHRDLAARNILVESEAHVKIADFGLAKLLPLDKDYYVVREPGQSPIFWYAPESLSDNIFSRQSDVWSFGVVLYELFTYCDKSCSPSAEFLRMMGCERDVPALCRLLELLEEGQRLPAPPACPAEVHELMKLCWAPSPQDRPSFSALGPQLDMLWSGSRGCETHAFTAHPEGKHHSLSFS
Chain of TYK2 (h) (P29597 whole entry): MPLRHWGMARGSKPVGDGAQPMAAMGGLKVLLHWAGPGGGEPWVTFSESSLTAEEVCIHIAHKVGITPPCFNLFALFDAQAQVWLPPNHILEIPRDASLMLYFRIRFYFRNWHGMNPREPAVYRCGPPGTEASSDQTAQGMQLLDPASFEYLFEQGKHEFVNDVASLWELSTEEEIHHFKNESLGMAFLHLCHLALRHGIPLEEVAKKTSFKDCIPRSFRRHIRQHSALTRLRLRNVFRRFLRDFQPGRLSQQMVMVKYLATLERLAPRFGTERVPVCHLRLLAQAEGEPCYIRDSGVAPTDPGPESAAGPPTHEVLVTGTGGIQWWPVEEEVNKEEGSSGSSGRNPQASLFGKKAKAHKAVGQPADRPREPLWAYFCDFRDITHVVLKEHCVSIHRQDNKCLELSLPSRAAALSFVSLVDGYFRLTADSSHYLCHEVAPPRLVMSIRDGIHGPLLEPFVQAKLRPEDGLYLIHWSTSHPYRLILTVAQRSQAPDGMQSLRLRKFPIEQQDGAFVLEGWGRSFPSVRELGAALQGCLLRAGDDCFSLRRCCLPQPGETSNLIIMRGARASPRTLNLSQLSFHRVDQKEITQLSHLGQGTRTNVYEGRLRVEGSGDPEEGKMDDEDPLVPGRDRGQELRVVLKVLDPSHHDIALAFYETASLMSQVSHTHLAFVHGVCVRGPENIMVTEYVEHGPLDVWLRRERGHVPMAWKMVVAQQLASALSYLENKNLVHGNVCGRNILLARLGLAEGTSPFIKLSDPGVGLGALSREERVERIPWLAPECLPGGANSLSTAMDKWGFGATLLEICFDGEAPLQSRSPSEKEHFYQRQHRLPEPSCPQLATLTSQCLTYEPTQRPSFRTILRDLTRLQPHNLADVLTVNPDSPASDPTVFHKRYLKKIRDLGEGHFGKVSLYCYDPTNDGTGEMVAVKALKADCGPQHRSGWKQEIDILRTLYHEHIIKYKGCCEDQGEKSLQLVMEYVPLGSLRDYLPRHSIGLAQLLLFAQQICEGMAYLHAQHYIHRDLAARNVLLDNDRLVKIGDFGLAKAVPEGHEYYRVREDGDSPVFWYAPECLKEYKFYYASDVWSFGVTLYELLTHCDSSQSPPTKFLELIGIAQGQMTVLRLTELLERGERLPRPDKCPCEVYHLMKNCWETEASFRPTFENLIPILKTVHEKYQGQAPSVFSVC
Chain of JAK1 (h) (P23458 whole entry): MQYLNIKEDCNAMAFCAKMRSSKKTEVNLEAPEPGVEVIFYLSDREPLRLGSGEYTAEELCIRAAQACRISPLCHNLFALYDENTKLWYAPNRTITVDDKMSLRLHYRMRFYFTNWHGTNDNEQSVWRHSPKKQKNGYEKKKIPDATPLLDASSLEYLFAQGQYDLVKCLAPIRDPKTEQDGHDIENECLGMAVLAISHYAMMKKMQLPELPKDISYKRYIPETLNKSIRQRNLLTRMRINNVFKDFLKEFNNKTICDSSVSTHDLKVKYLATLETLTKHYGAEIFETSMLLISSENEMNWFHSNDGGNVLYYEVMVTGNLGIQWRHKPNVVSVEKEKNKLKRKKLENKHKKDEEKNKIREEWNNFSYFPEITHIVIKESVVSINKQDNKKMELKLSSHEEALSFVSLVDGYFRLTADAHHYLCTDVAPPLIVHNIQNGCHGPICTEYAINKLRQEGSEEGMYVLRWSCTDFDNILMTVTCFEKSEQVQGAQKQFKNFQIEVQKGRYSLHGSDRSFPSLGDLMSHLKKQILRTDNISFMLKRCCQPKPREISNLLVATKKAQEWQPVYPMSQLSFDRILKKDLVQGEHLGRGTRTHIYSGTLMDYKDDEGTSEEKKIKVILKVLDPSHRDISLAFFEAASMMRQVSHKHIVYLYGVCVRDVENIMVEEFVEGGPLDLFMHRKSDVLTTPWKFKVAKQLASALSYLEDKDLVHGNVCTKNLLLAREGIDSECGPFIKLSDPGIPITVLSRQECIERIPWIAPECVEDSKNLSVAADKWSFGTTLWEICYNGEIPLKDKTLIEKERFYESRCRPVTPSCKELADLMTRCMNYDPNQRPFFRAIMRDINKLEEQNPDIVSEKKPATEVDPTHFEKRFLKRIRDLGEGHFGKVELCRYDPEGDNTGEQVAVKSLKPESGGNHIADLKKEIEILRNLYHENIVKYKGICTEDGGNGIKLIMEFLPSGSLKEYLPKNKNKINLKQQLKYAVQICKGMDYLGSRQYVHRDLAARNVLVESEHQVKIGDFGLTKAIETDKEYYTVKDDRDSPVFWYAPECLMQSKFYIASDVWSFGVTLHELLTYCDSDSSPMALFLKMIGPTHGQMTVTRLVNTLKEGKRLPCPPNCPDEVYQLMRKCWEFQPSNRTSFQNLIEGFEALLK
Chain of JAK2 (h) (O60674 whole entry): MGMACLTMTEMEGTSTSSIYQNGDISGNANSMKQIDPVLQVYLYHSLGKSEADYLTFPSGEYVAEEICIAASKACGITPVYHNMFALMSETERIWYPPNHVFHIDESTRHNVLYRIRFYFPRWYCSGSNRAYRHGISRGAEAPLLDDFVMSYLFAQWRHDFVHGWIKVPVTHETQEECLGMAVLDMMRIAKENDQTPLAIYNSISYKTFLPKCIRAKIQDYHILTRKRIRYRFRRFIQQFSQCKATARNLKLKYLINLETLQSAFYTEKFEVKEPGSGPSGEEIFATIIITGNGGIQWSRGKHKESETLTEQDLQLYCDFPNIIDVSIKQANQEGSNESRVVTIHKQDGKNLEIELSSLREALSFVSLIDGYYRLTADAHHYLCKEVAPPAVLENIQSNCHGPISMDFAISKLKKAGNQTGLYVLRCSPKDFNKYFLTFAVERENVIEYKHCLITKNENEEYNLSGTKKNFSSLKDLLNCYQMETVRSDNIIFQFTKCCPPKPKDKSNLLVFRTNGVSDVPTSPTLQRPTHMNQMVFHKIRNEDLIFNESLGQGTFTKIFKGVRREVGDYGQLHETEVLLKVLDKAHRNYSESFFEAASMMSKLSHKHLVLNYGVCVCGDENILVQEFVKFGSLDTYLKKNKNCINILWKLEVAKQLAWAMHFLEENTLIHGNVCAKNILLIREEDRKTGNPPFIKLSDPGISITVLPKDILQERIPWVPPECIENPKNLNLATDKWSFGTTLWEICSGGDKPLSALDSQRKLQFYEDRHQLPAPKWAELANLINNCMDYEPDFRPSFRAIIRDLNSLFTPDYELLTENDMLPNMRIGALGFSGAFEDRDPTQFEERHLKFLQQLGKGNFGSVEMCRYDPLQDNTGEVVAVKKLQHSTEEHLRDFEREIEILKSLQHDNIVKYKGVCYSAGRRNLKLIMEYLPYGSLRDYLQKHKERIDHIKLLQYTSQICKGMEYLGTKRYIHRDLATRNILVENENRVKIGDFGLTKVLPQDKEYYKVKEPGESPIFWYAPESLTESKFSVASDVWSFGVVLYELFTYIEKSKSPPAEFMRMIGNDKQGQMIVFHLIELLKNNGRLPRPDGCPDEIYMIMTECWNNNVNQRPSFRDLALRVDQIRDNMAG

## O=C(Nc1nc2cccc(C3CCC(NC(=O)[C@@H]4CC4(F)F)CC3)n2n1)C1CC1 (single isomer, unassigned) [Compound 8-1]
JAK1 (h)
  IC50: 0.111 µM
JAK2 (h)
  IC50: 0.861 µM
JAK3 (h)
  IC50: > 10 µM
TYK2 (h)
  IC50: 0.633 µM

## O=C(Nc1nc2cccc(C3CCC(NC(=O)[C@H]4CC4(F)F)CC3)n2n1)C1CC1 (single isomer, unassigned) [Compound 8-2]
JAK1 (h)
  IC50: 0.002 µM
JAK3 (h)
  IC50: 0.957 µM
TYK2 (h)
  IC50: 0.024 µM
[1]; 5 mg/kg p.o. bid 14 d
  inhibition rate relative to the vehicle control group (foot volume curve AUC): 38.0%
[1]; 5 mg/kg p.o. bid 14 d, end of the experiment (27th day)
  average foot volume of arthritis rat: 1.4 mL
[1]; 15 mg/kg p.o. bid 14 d
  inhibition rate relative to the vehicle control group (foot volume curve AUC): 44.5%
[1]; [3]
  average foot volume of arthritis rat: 1.1 mL
[1]; 5 mpk p.o. bid 14 d, end of the experiment (27th day), vehicle peak about 8.5
  clinical score of arthritis rats: 2.7
[1]; [4]
  clinical score of arthritis rats: 1.0
[1]; dose groups 5 and 15 mg/kg p.o. bid, weight decreased from the 15th to the 17th day
  body weight of arthritis rats: began to recover slowly on the 19th day

## O=C(Nc1nc2cccc(C3CCC(NC(=O)[C@@H]4CC4(F)F)CC3)n2n1)C1CC1 (single isomer, unassigned) [Compound 8-3]
JAK1 (h)
  IC50: 0.494 µM
JAK2 (h)
  IC50: 5.77 µM
JAK3 (h)
  IC50: > 10 µM
TYK2 (h)
  IC50: 3.44 µM

## O=C(Nc1nc2cccc(C3CCC(NC(=O)[C@H]4CC4(F)F)CC3)n2n1)C1CC1 (single isomer, unassigned) [Compound 8-4]
JAK1 (h)
  IC50: 0.442 µM
JAK2 (h)
  IC50: 3.75 µM
JAK3 (h)
  IC50: > 10 µM
TYK2 (h)
  IC50: 2.44 µM

## O=C(Nc1nc2cccc(C3=CCC(NC(=O)C4CC4(F)F)CC3)n2n1)C1CC1 (centres unmarked) [Compound 1-7]
JAK2 (h)
  IC50: 0.239 µM
JAK3 (h)
  IC50: 3.11 µM
TYK2 (h)
  IC50: 0.073 µM
[2]
  Bioavailability: 75.2%
[2]; [5]
  AUC0-inf: 18.033 µM·h
  T1/2 (half-life): 2.07 h
  Cmax: 23.9 µM

## O=C(Nc1nc2cccc(C3=CCC(NC(=O)C4CC4)CC3)n2n1)C1CC1 (centres unmarked) [Compound 1-12]
JAK1 (h)
  IC50: 0.149 µM
JAK2 (h)
  IC50: 1.42 µM
JAK3 (h)
  IC50: > 10 µM
TYK2 (h)
  IC50: 0.497 µM

## O=C(Nc1nc2cccc(C3=CC[C@@H](NC(=O)[C@@H]4CC4(F)F)CC3)n2n1)C1CC1 [Compound 3-1]
JAK2 (h)
  IC50: 0.141 µM
JAK3 (h)
  IC50: 5.52 µM
TYK2 (h)
  IC50: 0.078 µM
[2]
  Bioavailability: 30.0%
[2]; [5]
  AUC0-inf: 19.967 µM·h
  T1/2 (half-life): 3.11 h
  Cmax: 3.8 µM

## O=C(Nc1nc2cccc(C3=CC[C@@H](NC(=O)[C@H]4CC4(F)F)CC3)n2n1)C1CC1 [Compound 3-2]
JAK1 (h)
  IC50: 0.163 µM
TYK2 (h)
  IC50: 1.37 µM

## O=C(Nc1nc2cccc(C3=CC[C@H](NC(=O)[C@@H]4CC4(F)F)CC3)n2n1)C1CC1 [Compound 3-3]
JAK1 (h)
  IC50: 0.166 µM
TYK2 (h)
  IC50: 0.942 µM

## O=C(Nc1nc2cccc(C3=CC[C@H](NC(=O)[C@H]4CC4(F)F)CC3)n2n1)C1CC1 [Compound 3-4]
JAK1 (h)
  IC50: 0.017 µM
JAK2 (h)
  IC50: 0.126 µM
JAK3 (h)
  IC50: 2.55 µM
TYK2 (h)
  IC50: 0.071 µM

## O=C(Nc1nc2cccc(C3CCC(NC(=O)C4CC4(F)F)CC3)n2n1)C1CC1 (centres unmarked) [Compound 4-2]
JAK3 (h)
  IC50: 2.05 µM
TYK2 (h)
  IC50: 0.01 µM
[2]
  Bioavailability: 58.6%
[2]; [5]
  AUC0-inf: 11.021 µM·h
  T1/2 (half-life): 2.22 h
  Cmax: 13.4 µM

## O=C(Nc1nc2cccc(C3CCC(NC(=O)C4(F)CC4)CC3)n2n1)C1CC1 (centres unmarked) [Compound 4-3]
JAK1 (h)
  IC50: 0.031 µM
JAK2 (h)
  IC50: 0.36 µM
JAK3 (h)
  IC50: 4.38 µM
TYK2 (h)
  IC50: 0.127 µM
[2]; blood, po, read-out: Bioavailability
  Bioavailability: 89.8%
[2]; blood, po, tail vein and gavage groups, route of the parameter and dose not given, read-out: AUC0-inf
  AUC0-inf: 85.8 µM·h
[2]; blood, po, tail vein and gavage groups, route of the parameter and dose not given
  Cmax: 24.8 µM
[2]; blood, po, tail vein and gavage groups, route of the parameter and dose not given, read-out: T1/2 (half-life) (converted)
  half-life: 2.86 h
[1]; [3]
  average foot volume of arthritis rat: 1.5 mL
[1]; [4]
  clinical score of arthritis rats: 2.6
[1]; Rattus norvegicus, po, 336 h, 15 mg/kg p.o. bid 14 d, read-out: inhibition rate relative to the vehicle control group (foot volume curve AUC)
  inhibition at 15 mg/kg: 32.3%

## O=C(Nc1nc2cccc(C3=CCN(C(=O)C4CC4)CC3)n2n1)C1CC1 [Compound 5-4]
JAK1 (h)
  IC50: 0.09 µM
JAK2 (h)
  IC50: 0.422 µM
JAK3 (h)
  IC50: > 10 µM
TYK2 (h)
  IC50: 0.178 µM

## O=C(Nc1nc2cccc(C3=CCN(C(=O)C4CC4(F)F)C3)n2n1)C1CC1 (centres unmarked) [Compound 6-1]
JAK1 (h)
  IC50: 0.07 µM
JAK3 (h)
  IC50: > 10 µM
TYK2 (h)
  IC50: 0.244 µM

## O=C(Nc1nc2cccc(C3=CCN(C(=O)C4(F)CC4)C3)n2n1)C1CC1 [Compound 6-2]
JAK1 (h)
  IC50: 0.531 µM
JAK2 (h)
  IC50: 1.12 µM
JAK3 (h)
  IC50: > 10 µM
TYK2 (h)
  IC50: 2.87 µM

## O=C(Nc1nc2nccc(C3CCC(NC(=O)C4CC4(F)F)CC3)c2s1)C1CC1 (centres unmarked) [Compound 10-9]
JAK1 (h)
  IC50: 2.29 µM
JAK2 (h)
  IC50: > 10 µM
JAK3 (h)
  IC50: > 10 µM
TYK2 (h)
  IC50: 0.245 µM

## C[C@@H]1C[C@H]2[C@@H]3CCC4=CC(=O)C=C[C@]4(C)[C@@]3(F)[C@@H](O)C[C@]2(C)[C@@]1(O)C(=O)CO [Dexamethasone, reference compound]
[1]; 0.3 mg/kg p.o. qd 14 d
  inhibition rate relative to the vehicle control group (foot volume curve AUC): 44.9%
[1]; 0.3 mg/kg p.o. qd 14 d, end of the experiment
  average foot volume of arthritis rat: 1.1 mL
[1]; 0.3 mg/kg p.o. qd 14 d, from the 23rd day until the end of the experiment
  clinical score of arthritis rats: about 2.0
